Data taken from patent EP0503520A1, “Cyclic ketal derivatives” (GLAXO GROUP LIMITED, priority 1991, dated 1992).

Target: T1, squalene synthase (Rattus norvegicus, UniProt Q02769)
T1 construct: incubating rat liver homogenate with various concentrations of the test compound; from tissue; host or cells: rat liver homogenate
T1 sequence (Q02769 1-416): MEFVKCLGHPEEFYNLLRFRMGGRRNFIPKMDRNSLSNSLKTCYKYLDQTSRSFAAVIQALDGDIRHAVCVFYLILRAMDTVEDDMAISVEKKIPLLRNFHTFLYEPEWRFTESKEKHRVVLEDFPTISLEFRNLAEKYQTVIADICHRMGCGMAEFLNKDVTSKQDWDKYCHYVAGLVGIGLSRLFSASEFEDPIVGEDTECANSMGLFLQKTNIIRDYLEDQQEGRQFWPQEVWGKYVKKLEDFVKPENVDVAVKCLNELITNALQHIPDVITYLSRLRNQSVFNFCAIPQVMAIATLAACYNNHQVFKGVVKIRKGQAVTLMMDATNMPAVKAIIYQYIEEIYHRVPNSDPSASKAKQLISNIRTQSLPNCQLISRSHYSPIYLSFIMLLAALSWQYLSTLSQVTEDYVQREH
Test: Inhibition of squalene synthase in rat liver homogenate with [2-14C]farnesylpyrophosphate as substrate
Type: biochemical
Conditions: 50% inhibition of [14C]squalene production in a 30 minute assay, read-out: IC₅₀
Experimental: Acta, Volume 877, 50-60 (1986) and modified to include measurement of cholesterol by high performance liquid chromatography (h.p.l.c.).
[¹⁴C] Squalene was separated from unreacted substrate on thin layer chromatography plates and determined by liquid scintillation counting. Inhibition of squalene synthase was quantified by incubating rat liver homogenate with various concentrations of the test compound in the presence of [2-¹⁴C] farnesylpyrophosphate. The concentration of compound giving 50% inhibition of [¹⁴C] squalene production in a 30 minute assay was taken as the IC₅₀ value.

| SMILES | IC50 |
| --- | --- |
| C=C(CC[C@]12O[C@H](C(=O)O)[C@@](O)(C(=O)O)[C@](C(=O)O)(O1)[C@H](OC(=O)/C=C/[C@@H](C)C[C@@H](C)CC)[C@H]2O)[C@@H](OC(C)=O)[C@H](C)Cc1ccc(F)cc1 (relative stereo) [Example 1(a), [1S-[1α(4R*,5S*),3α,4β,5α,6α(2E,4R*,6R*),7β]] 1-[4-Acetoxy-6-(4-fluorophenyl)-5-methyl-3-methylenehexyll-4,6,7-trihydroxy-2,8-dioxabicyclo[3.2.1]octane-3,4,5-tricarboxylic acid, 6-(4,6-dimethyl-2-octenoate)] | < 100 nM |
| C=C(CC[C@]12O[C@H](C(=O)O)[C@@](O)(C(=O)O)[C@](C(=O)O)(O1)[C@H](OC(=O)/C=C/[C@@H](C)C[C@@H](C)CC)[C@H]2O)[C@@H](OC(C)=O)[C@H](C)Cc1cccc(F)c1 (relative stereo) [Example 1(b), [1S-[1α(4R*,5S*),3α,4β,5α,6α(2E,4R*,6R*),7β]] 1-[4-Acetoxy-6-(3-fluorophenyl)-5-methyl-3-methylenehexyl]-4,6,7-trihydroxy-2,8-dioxabicyclo[3.2.1]octane-3,4,5-tricarboxylic acid, 6-(4,6-dimethyl-2-octenoate)] | < 100 nM |
| C=C(CC[C@]12O[C@H](C(=O)O)[C@@](O)(C(=O)O)[C@](C(=O)O)(O1)[C@H](OC(=O)/C=C/[C@@H](C)C[C@@H](C)CC)[C@H]2O)[C@@H](OC(C)=O)[C@H](C)Cc1ccccc1F (relative stereo) [Example 1(c), [1S-[1α(4R*,5S*),3α,4β,5α,6α(2E,4R*,6R*),7β]] 1-[4-Acetoxy-6-(2-fluorophenyl)-5-methyl-3-methylenehexyl]-4,6,7-trihydroxy-2,8-dioxabicyclo[3.2.1]octane-3,4,5-tricarboxylic acid, 6-(4,6-dimethyl-2-octenoate)] | < 100 nM |
